Measurements published in patent US11766414B2, “Compositions, delivery systems, and methods useful in tumor therapy” (Indi Molecular, Inc., priority 2020, dated 2023).
Read-outs that look alike come from different tables or passages of the source. Values belong to the molecule of their own block, whether it stands above or below them. Starred links: 1 amine or outer side, 2 acyl side, 3 side chain; linkers in the order of their positions; H or OH if unused. Positions of bridges follow the written chain, without caps; N, C: chain ends. Non-standard residues stand in square brackets, D forms with d. Residues, ends and D or L forms follow the SMILES beside them. Triazole bridges read from a SMILES are 1,4-linked. *: point of attachment. DOTA = O=C(O)CN1CCN(CC(=O)O)CCN(CC(=O)*)CCN(CC(=O)O)CC1; Pteroyl = Nc1nc2ncc(CNc3ccc(C(=O)*)cc3)nc2c(=O)[nH]1; Biotin = O=C1N[C@H]2[C@H](CS[C@H]2CCCCC(=O)*)N1; Butanoyl(4-(4-I-phenyl)) = O=C(CCCc1ccc(I)cc1)*; PEG10 = NCCOCCOCCOCCOCCOCCOCCOCCOCCOCCOCCC(=O)O; Lys(N3) = [N-]=[N+]=NCCCC[C@H](N)C(=O)O; γGlu = O=C(O)[C@H](CCC(=O)[*:2])N[*:1]; Pra = C#CC[C@H](N)C(=O)O

Legend:
[1] = Plasma stability, human plasma
Description: (§2) Plasma was thawed in a 37° C. water bath. Residual clots were removed via centrifugation at 4000 rpm for 5 minutes. The pH of the plasma was adjusted to 7.4 if required. Test articles were diluted to 100 μM by diluting a 1 mM working solution (in DMSO) with 45% methanol in water. To 98 μL of plasma was added 2 μL of the 100 μM solution, resulting in 2 μM final concentration of the test article. Samples were incubated at 37° C. in a water bath. At the indicated time points (0, 10, 30, 60, 120 minutes) 100 μL of 4% H3PO4 was added followed by 800 μL of stop solution (200 ng/mL tolbutamide and 200 ng/mL labetalol in 100% acetonitrile). The samples were centrifuged and the plasma protein-free supernatant (100 μL) was subjected to LC-MS/MS analysis.

human recombinant NEP = human recombinant NEP (Homo sapiens, UniProt P08473); assay: NEP enzymatic cleavage assay (MALDI, HPLC); type: biochemical; conditions: for cleavage of the test article: 1 nM NEP, MALDI-TOF MS; for in vitro Assay Data (NEP assay): Table 2
Description: In order to test the susceptibility of GFK and MVK linkers to NEP-mediated cleavage, the peptide (Folate-hshta-Lys(MPBA)-Gly-Phe-Lys(DOTA) (SEQ ID NO:6)) was incubated with human recombinant NEP and analyzed the solution for the presence of cleaved adducts. MALDI was utilized to monitor the cleavage of a PCC heterobiligand that contains a NEP protease recognizable sequence (G-F-K). The PCC concentration was constant and the NEP concentration was titrated down from 10 nM to 1 nM, 0.1 nM, 0.01 nM, and no NEP. The NEP-mediated cleaved adduct was identified by mass. 10 μM PCC containing the GFK linker was combined with varying amounts of NEP. […] Below 0.1 nM no cleavage was observed. • Folate-hshta-Lys(MPBA)-Gly-Phe-Lys(DOTA) (SEQ ID NO:6) • Molecular weight 2231.42
The NEP-mediated cleavage was also monitored by HPLC. In agreement with the MALDI spectra, the HPLC chromatograms show depletion of the parent brush-border heterobiligand (retention time 17.1 minutes), dose-dependent on the amount of NEP spiked into the sample (10 nM, 1 nM, 0.1 nM, 0.01 nM, and no NEP). An appearance of a new peak (retention time 16.5 minutes) in concert with the depletion of the starting material is presumed to be the cleaved folate-containing peptide.
In order to test the specificity of NEP, a non-cleavable linker (PEG3) was also assayed.
To reduce the radioactive dose to the kidney, Indi ^177Lu-7327 was constructed to incorporate a GFK linker that is susceptible to cleavage by enzymes found predominately in the kidney's brush border. These enzymes cleave off the radionuclide-chelator complex, which is quickly eliminated by the kidney for excretion in the urine. The zinc metalloprotease neprilysin (NEP) is expressed with high abundance in the kidney. […] To confirm NEP-mediated cleavage of the GFK linker in Indi 7327, the peptide was incubated with recombinant human NEP at 37° C. for 1 h and analyzed by matrix-assisted laser desorption/ionization mass spectrometry (MALDI-MS) for the evolution of cleaved adducts (FIG. 42). […] The expected cleaved adduct (mass: 1283.16 m/z) appears in the samples containing 10, 1.0, and 0.1 nM NEP. […] Below 0.1 nM NEP, no cleavage was observed. In addition to confirming the selectivity of NEP for the GFK linker, it is also important to note that the remaining portions of the Indi 7327 were impervious to the enzyme.

[2] = Plasma stability, CD-1 mouse plasma
Description: as §2

[3] = Plasma protein binding, CD-1 mouse plasma; type: in vitro ADME; conditions: CD-1 mouse plasma; read-out: Plasma % Bound, Mu (converted)
Procedure, shortened: (§1)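 Equilibrium dialysis across 12-14 kDa regenerated cellulose membranes, test article at 2 μM in plasma (pH adjusted to 7.0-8.0), triplicate. Incubated 4 h at 37 °C, 5% CO2, slow shaking. Both chambers quantified by LC-MS/MS.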

[4] = Plasma protein binding, human plasma; type: in vitro ADME; conditions: human, plasma
Procedure, shortened: as §1

FOLR1 [5] = target: T1, FOLR1 (Homo sapiens, UniProt P15328); assay: Folic acid competition ELISA; type: binding
Description: A competition experiment was conducted to further understand the binding kinetics of the lead heterobiligand (folate-hshta (SEQ ID NO:6) Nterm heterobiligand).

[6] = system: OVCAR3 FOLR1+ cells (PC-3 FOLR1− cells as negative line); assay: Flow cytometry binding to FOLR1 (+) and FOLR1 (−) cell lines; type: cell-based, human; conditions: OVCAR3 vs PC-3, flow cytometry
Description: Both the kyeet (SEQ ID NO:9) and hshta (SEQ ID NO:6)-derived biligands were tested by flow cytometry for binding to FOLR1 (+) and FOLR1 (−) cell lines (FIGS. 6 and 7). The human ovarian adenocarcinoma-derived cell line OVCAR3 has robust FOLR1 expression and was selected as the FOLR1 (+) cell line. The human prostate adenocarcinoma-derived cell line PC-3 was selected as a FOLR1 (−) cell line.

OVCAR3 cells [7] = assay: Cell penetration / internalization assays (acid wash flow cytometry, fluorescence microscopy); type: cell-based, human
Description: FIG. 10 is a diagram of an assay for assessing cell internalization FOLR1 heterobiligands.
The folate-hshta (SEQ ID NO:6) Nterm heterobiligand was also evaluated in cell penetration imaging assays (FIG. 10). OVCAR3 and PC-3 cells were incubated with the test article at 37° C. for 1 hour. Flow cytometry analysis of the resulting treated cells indicated strong binding to FOLR1 (+) cells. To understand the proportion bound to the surface but not internalized, the cells were briefly washed with acid to liberate the non-internalized peptide.
To further understand intracellular trafficking of the Nterm heterobiligand, these dye-labeled compounds were imaged by fluorescence microscopy. The cells were counterstained with BioTracker 490, which stains membranes, and Rab5a+, an endosomal stain. […] Low levels of DyLight650 was detected within PC-3 (FOLR1−) cells. Taken together, internalization of the heterobiligand appears to be receptor driven and selective for FOLR1 (+) cells.

[8] = target: mouse recombinant FOLR1 (rMuFOLR1) (Mus musculus, UniProt P35846); assay: ELISA cross reactivity with mouse recombinant FOLR1; type: binding; conditions: cross reactivity experiment
From the text: Further evaluation of the folate-hshta (SEQ ID NO:6) Nterm heterobiligand depended on cross reactivity with mouse recombinant FOLR1 (rMuFOLR1). The heterobiligand binds to both species' variants of FOLR1 with high affinity. This observation was expected given the high homology between the two variants (approximately 92%).

OVCAR3 cells [9] = assay: Competition at the cellular level with exogenous folic acid (flow cytometry); type: cell-based, human
From the text: Competition at the cellular level was also probed.

FOLR1 [10] = target: T1, FOLR1; assay: ELISA assay of FOLR1 binding
From the text: FIG. 5 is a diagram of ELISA assay of FOLR1 binding of heterobiligands.

[11] = mouse
Description: as §2

[12] = human plasma
Description: as §2

[13] = human plasma; remark: listed apart in the source
Description: as §2

human serum albumin = human serum albumin (Homo sapiens, UniProt P02768); conditions: read-out: affinity for human serum albumin; cited from earlier work
[14] = human plasma, read-out: Plasma % Bound, Hu (converted)

human recombinant NEP, sequence (P08473 whole entry): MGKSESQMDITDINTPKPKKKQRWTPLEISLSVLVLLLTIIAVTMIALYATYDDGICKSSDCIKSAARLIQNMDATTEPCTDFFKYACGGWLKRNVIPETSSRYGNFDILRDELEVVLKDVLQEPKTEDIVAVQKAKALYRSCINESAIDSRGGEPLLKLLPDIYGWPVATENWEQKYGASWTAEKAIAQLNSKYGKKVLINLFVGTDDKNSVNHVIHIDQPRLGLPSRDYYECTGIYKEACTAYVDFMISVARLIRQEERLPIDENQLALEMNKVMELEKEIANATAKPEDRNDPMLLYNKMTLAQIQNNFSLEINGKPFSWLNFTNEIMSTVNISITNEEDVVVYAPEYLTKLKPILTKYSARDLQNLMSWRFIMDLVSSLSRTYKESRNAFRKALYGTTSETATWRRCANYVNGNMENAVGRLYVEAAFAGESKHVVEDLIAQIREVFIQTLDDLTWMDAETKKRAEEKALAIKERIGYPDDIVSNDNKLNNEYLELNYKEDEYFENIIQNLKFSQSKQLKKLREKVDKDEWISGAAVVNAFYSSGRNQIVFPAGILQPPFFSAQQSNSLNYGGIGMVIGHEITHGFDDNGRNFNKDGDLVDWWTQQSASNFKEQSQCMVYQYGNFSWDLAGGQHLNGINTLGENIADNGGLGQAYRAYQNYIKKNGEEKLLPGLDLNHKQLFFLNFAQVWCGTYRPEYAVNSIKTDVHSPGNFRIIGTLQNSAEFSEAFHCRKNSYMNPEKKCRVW
T1 sequence (P15328 25-234): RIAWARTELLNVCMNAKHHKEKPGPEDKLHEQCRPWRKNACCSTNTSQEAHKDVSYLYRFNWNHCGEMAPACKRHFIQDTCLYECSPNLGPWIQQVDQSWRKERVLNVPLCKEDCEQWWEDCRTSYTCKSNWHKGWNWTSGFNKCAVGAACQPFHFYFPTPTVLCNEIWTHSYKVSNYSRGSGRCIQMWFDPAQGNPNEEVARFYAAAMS
mouse recombinant FOLR1 (rMuFOLR1), sequence (P35846 25-232): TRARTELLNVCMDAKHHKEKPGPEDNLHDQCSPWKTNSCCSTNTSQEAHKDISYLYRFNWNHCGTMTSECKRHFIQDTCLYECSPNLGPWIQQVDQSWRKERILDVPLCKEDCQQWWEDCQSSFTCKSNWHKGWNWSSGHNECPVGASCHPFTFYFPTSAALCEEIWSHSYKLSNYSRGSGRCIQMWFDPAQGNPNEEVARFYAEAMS

cleavage of the test article (human recombinant NEP): complete
in vitro Assay Data (NEP assay) (human recombinant NEP): Cleavage of -G-F-K-
Molecule: C[C@H](O)[C@H]1NC(=O)[C@@H](Cc2c[nH]cn2)NC(=O)[C@@H](CO)NC(=O)[C@@H](Cc2c[nH]cn2)NC(=O)[C@@H](NC(=O)CC[C@H](NC(=O)c2ccc(NCc3cnc4nc(N)[nH]c(=O)c4n3)cc2)C(=O)O)Cc2cn(nn2)CCCC[C@@H](C(=O)N[C@@H](CCCCNC(=O)CCCc2ccc(I)cc2)C(=O)NCC(=O)N[C@@H](Cc2ccccc2)C(=O)N[C@@H](CCCCNC(=O)CN2CCN(CC(=O)O)CCN(CC(=O)O)CCN(CC(=O)O)CC2)C(=O)O)NC(=O)[C@@H](C)NC1=O [Compound #1307, folate-hshta-Lys(IPBA)-Gly-Phe-Lys(DOTA)] ({Pteroyl-γGlu}-[Pra][dH][dS][dH][dT][dA][Lys(N3)]K(Butanoyl(4-(4-I-phenyl)))GFK(DOTA)-OH; triazole 1-7)
half-life [1]: > 4.82 h
half-life [2]: > 4.82 h
fraction unbound [3]: 0.004
fraction unbound [4, 14]: 0.005

binding affinity of the heterobiligand with folic acid doped in (FOLR1 [5]; folic acid from 0 to 500 nM): virtually unchanged
binding of the heterobiligand with folic acid doped in (FOLR1 [5]; folic acid greater than 500 nM): partially compete away
EC50 [8]: 0.33 nM
greater affinity than folate itself (FOLR1 [10]; ELISA): ~30 fold
EC50 (FOLR1 [10]; biotin-labeled constructs with MPBA or DOTA tag, read-out: EC50): 0.065 nM
EC50 (FOLR1 [10]; cross reactivity experiment, read-out: Ec50, Human FOLR1): 0.35 nM
Molecule: C[C@H](O)[C@H]1NC(=O)[C@@H](Cc2c[nH]cn2)NC(=O)[C@@H](CO)NC(=O)[C@@H](Cc2c[nH]cn2)NC(=O)[C@@H](NC(=O)CC[C@H](NC(=O)c2ccc(NCc3cnc4nc(N)[nH]c(=O)c4n3)cc2)C(=O)O)Cc2cn(nn2)CCCC[C@@H](C(=O)NCCOCCOCCOCCOCCOCCOCCOCCOCCOCCOCCC(=O)NCCOCCOCCOCCOCCOCCOCCOCCOCCOCCOCCC(=O)N[C@@H](CCCCNC(=O)CCCC[C@@H]2SC[C@@H]3NC(=O)N[C@@H]32)C(N)=O)NC(=O)[C@@H](C)NC1=O [Folate-hshta Nterm, Folate-hshta-PEG10-PEG10-K(Biotin)] ({Pteroyl-γGlu}-[Pra][dH][dS][dH][dT][dA][Lys(N3)][PEG10][PEG10]K(Biotin)-NH2; triazole 1-7)
binding selectivity for FOLR1 (+) cells over FOLR1 (−) cells [6]: high selectivity
percentage of positively stained cells (OVCAR3 cells [7]; OVCAR3, 37° C. 1 hour, before acid treatment): 73.4%
percentage of positively stained cells (OVCAR3 cells [7]; OVCAR3, following acid treatment): 54.2%
percentage of OVCAR3 cells binding (OVCAR3 cells [9]; 0.1 μg/mL folate): 57%
percentage of OVCAR3 cells binding (OVCAR3 cells [9]; no folate): 76.6%

Second part, the molecule before the results:

Molecule: CSCC[C@H](NC(=O)[C@H](CCCCNC(=O)CCCc1ccc(I)cc1)NC(=O)[C@@H]1CCCCn2cc(nn2)C[C@H](NC(=O)CC[C@H](NC(=O)c2ccc(NCc3cnc4nc(N)[nH]c(=O)c4n3)cc2)C(=O)O)C(=O)N[C@H](Cc2c[nH]cn2)C(=O)N[C@H](CO)C(=O)N[C@H](Cc2c[nH]cn2)C(=O)N[C@H]([C@H](C)O)C(=O)N[C@H](C)C(=O)N1)C(=O)N[C@H](C(=O)N[C@@H](CCCCNC(=O)CN1CCN(CC(=O)O)CCN(CC(=O)O)CCN(CC(=O)O)CC1)C(=O)O)C(C)C [compound 1306, folate-hshta-Lys(IPBA)-M-V-Lys(DOTA)] ({Pteroyl-γGlu}-[Pra][dH][dS][dH][dT][dA][Lys(N3)]K(Butanoyl(4-(4-I-phenyl)))MVK(DOTA)-OH; triazole 1-7)
half-life [1]: > 4.82 h
cleavage of the test article (human recombinant NEP): substantial
in vitro Assay Data (NEP assay) (human recombinant NEP): Cleavage of -M-V-K-
half-life [2]: > 4.82 h
fraction unbound [3]: 0.0288
fraction unbound [4, 14]: 0.0265
fraction unbound ([4]; species not given, read-out: bound to plasma (converted)): ~0.03

Molecule: C[C@H](O)[C@H]1NC(=O)[C@@H](Cc2cnc[nH]2)NC(=O)[C@@H](CO)NC(=O)[C@@H](Cc2cnc[nH]2)NC(=O)[C@@H](NC(=O)CC[C@H](NC(=O)c2ccc(NCc3cnc4nc(N)[nH]c(=O)c4n3)cc2)C(=O)O)Cc2cn(nn2)CCCC[C@@H](C(=O)NCC(=O)N[C@@H](Cc2ccccc2)C(=O)N[C@@H](CCCCNC(=O)CN2CCN(CC(=O)O)CCN(CC(=O)O)CCN(CC(=O)O)CC2)C(=O)O)NC(=O)[C@@H](C)NC1=O [compound 7327, folate-hshta-Gly-Phe-Lys(DOTA)] ({Pteroyl-γGlu}-[Pra][dH][dS][dH][dT][dA][Lys(N3)]GFK(DOTA)-OH; triazole 1-7)
Plasma Stability (t 1/2), Mu [11]: Mu: >6937.7 min
Plasma Stability (t 1/2), Hu [12]: Hu: >6937.7 min
half-life [13]: > 115 h

Molecule: GI48-GA: albumin-binding fragment of protein G from Streptococcus strain GI48, SEQ ID NO:33 (LAEAKVLANRELDKYGVSDYYKNLINNAKTVEGVKALIDEILAA)
Kd (human serum albumin): 1 nM
